Test results: patent US11993640B2, “Treating inflammatory lung disease” (United States Government as represented by the Department …, priority 2019, dated 2024)
Entries after “also recorded” stand apart in the source; their conditions may differ. Non-standard residues stand in square brackets, D forms with d. Residues, ends and D or L forms follow the SMILES beside them. *: point of attachment. Phe(F5) = N[C@@H](Cc1c(F)c(F)c(F)c(F)c1F)C(=O)O; hArg = N=C(N)NCCCC[C@H](N)C(=O)O; 12Ado = NCCCCCCCCCCCC(=O)O; Nle = CCCC[C@H](N)C(=O)O; Orn = NCCC[C@H](N)C(=O)O; Abu = CC[C@H](N)C(=O)O; PhAc = O=C(Cc1ccccc1)*

Columns and labels:
[1] = test system: PAK1-STAT3/NF-κB in gastric cancer cells; conditions: Gan et al. 2016; cited from earlier work
[2] = test system: C57Bl/6J mice treated with bleomycin; assay: Bleomycin lung injury model, lung histopathology scores (inflammation, modified Ashcroft fibrosis); assay type: in vivo, mouse
Description: Experimental animals. 8-week old C57Bl/6J male mice (The Jackson Laboratory, Bar Harbor, ME) were used in these experiments. Mice weighed about 26 grams at the start. Mice were randomly allocated to the experimental groups and housed in identical filter top cages in a ventilated rack. Mice were exposed to a 12-hour light/dark cycle and had free access to standard laboratory chow and water.
Bleomycin and GHRH-R antagonist treatment. Mice were treated with 0.8 units of bleomycin (Bleomycin for Injection USP, Hospira, Lake Forest, IL) intraperitoneally (IP) on days 1, 3, 7, 10, 14 and 21 (Collins S, Chan-Li Y, Oh M, Vigeland C, Limjunyawong N, Mitzner W, Powell J D, Horton M R (2016). JCI Insight 1(4):1-13). Mice (randomly assigned) were simultaneously treated subcutaneously (sc) with MIA-602 (5 μg/day) or its vehicle (100 μL/day). MIA-602 was dissolved in DMSO (ACS grade; Sigma-Aldrich) and diluted 1:500 in normal saline for daily sc injection on days 0-21.
Tissue preparations. Mice were killed by CO2 inhalation before any treatment, or on days 14 or 28 for micro-CT scans of lungs and harvesting of lung tissue (Vande Velde G, Poelmans J, De Langhe E, Hillen A, Vanoirbeek J, Himmelreich U, Lories R (2016). Dis Model Mech 9:91). The right mainstem bronchus was ligated and the right lung removed and frozen at −80° C. for hydroxyproline (HP) assays. The left lung was filled with 10% buffered formalin at ˜25 cm H2O pressure, the bronchus ligated, and the lung fixed in formalin. Fixed lungs were embedded in wax and 5 μm sections stained with hematoxylin and eosin (H&E) or Masson's trichrome stain.
Lung histopathology. Fibrosis was quantified in trichrome-stained sections using a modification of the Ashcroft score that describes grades of fibrosis. Inflammation in lung tissue was quantified in H&E stained sections (Hubner R, Gitter W, El Mokhtari N, Mathiak M, Both M, Bolte H, Freitag-Wolf S, Bewig B (2008). Biotechniques 44:507-517).
Data analysis. Data are reported as arithmetic means±SEM or SD as indicated. […]

[3] = test system: mouse lung fibroblasts (Mlg 2908); assay: RNAseq of cultured lung fibroblasts; assay type: cell-based; conditions: 1 and 5 μM, normal fibroblasts not exposed to bleomycin
Description: Lung fibroblasts. Newborn mouse lung fibroblasts (Mlg 2908) were obtained from the American Type Culture Collection, Manassas, VA and cultured in Eagle's minimal essential medium. Cells were grown in 6-well plates before incubation with 1 or 5 μM MIA-602 or vehicle, RNA isolation, and oxygen consumption measurements.
RNA was extracted from cultured fibroblasts using a Direct-zol RNA MicroPrep kit (R2060; Zymo Research, Irvine, CA). Cells were washed with PBS and lysed in TRIreagent™, then purified using Direct-zol RNA columns. DNase I treatment was done in columns and RNA eluted in DNase/Rnase-free water.
RNAseq and Pathway analyses. At least 10 ng of total RNA was used as input for the KAPA RNA HyperPrep Kit with RiboErase (HMR) to create ribosomal RNA-depleted sequencing libraries, including sample indexing, to allow for multiplexing. Cluster generation and sequencing was done on the Illumina cBOT and HiSeq 3000 using reagents provided by Illumina, finally generating >32 million single-end 100 base reads per sample.
De-multiplexed FASTQ files were created with Illumina supplied scripts in BCL2FASTQ software (v2.17). […]
Gene counts were normalized using trimmed mean of M-values (TMM) method. Differential expression between groups was calculated with the exact test implemented in edgeR (Robinson M, McCarthy D, Smyth G (2010). Bioinformatics 26:139-140). […]

[4] = day 28, bleomycin-treated mice, MIA-602 5 μg/day sc days 1-21

CCCC[C@H](NC(=O)[C@@H](NC(=O)[C@H](CC(=O)O)NC(=O)[C@H](CCC(N)=O)NC(=O)[C@H](CC(C)C)NC(=O)[C@H](CC(C)C)NC(=O)[C@H](CCCN)NC(=O)[C@H](Cc1c[nH]cn1)NC(=O)[C@H](C)NC(=O)[C@H](CO)NC(=O)[C@H](CC(C)C)NC(=O)[C@H](CCC(N)=O)NC(=O)[C@H](CC)NC(=O)[C@H](CC(C)C)NC(=O)[C@@H](NC(=O)[C@H](CCCN)NC(=O)[C@H](Cc1c[nH]cn1)NC(=O)[C@H](Cc1ccc(OC)cc1)NC(=O)[C@H](CCCCNC(=N)N)NC(=O)[C@H](C)NC(=O)[C@@H](NC(=O)[C@H](Cc1c(F)c(F)c(F)c(F)c1F)NC(=O)[C@@H](NC(=O)[C@H](C)NC(=O)[C@H](CC(=O)O)NC(=O)[C@@H](CCCNC(=N)N)NC(=O)[C@H](Cc1ccc(O)cc1)NC(=O)CCCCCCCCCCCNC(=O)Cc1ccccc1)[C@@H](C)CC)[C@@H](C)O)C(C)C)[C@@H](C)CC)C(=O)N[C@H](CCCNC(=N)N)C(=O)N[C@@H](CCCCNC(=N)N)C(N)=O [MIA-602, PhAC-Ada, Tyr D-Arg, Asp, Ala, Ile, 5FPhe, Thr, Ala, Har, Tyr(Me), His, Orn, Val, Leu, Abu, Gin, Leu, Ser, Ala, His, Orn, Leu, Leu, Gin, Asp, Ile, Nle, D-Arg, Har NH2, reference compound] ({PhAc-12Ado}-Y[dR]DAI[Phe(F5)]TA[hArg]Y(Me)H[Orn]VL[Abu]QLSAH[Orn]LLQDI[Nle][dR][hArg]-NH2)
Signaling pathways in gastric cancer cells [1]: downregulates p21 activated kinase and STAT3 and NFκB; also recorded: inhibits signaling pathways, including PAK1-STAT3/NF-κB
Lung inflammatory changes and fibrosis, histopathology ([2]; bleomycin-treated mice, days 14 and 28): Both inflammatory changes and fibrosis were decreased
Lung fibrosis histopathologic score, 5%-95% CI [2, 4]: 1.1-2.9
Lung fibrosis histopathologic score, range [2, 4]: 1.0-3.0
Fibroblast gene expression [3]: significant downregulation of genes involved in collagen fibril organization, cell-matrix adhesion and elastic fiber assembly
